Experimental data as given in patent US4626542A, “4-(5H-dibenzo[a,d]cyclohepten-5-yl)piperidine compounds, pharmaceutical compositions and methods” (Merck & Co., Inc., priority 1984, dated 1986).

system: not listed separately; experiment: Isomerization of the 5H axial to the 5H equatorial isomer followed by 1H NMR; assay type: physicochemical; conditions: 3.67 milligrams in 1 milliliter CDCl3, heated at 55° C.±1° C.
Method: Isomerization of the 5H axial isomer of 4-(5H-dibenzo[a,d]cyclohepten-5-yl)-1-methylpiperidine to the 5H equatorial isomer was carried out in an NMR tube. 3.67 milligrams of the axial isomer was dissolved in 1 milliliter of CDCl3 at 24° C. and the sample inserted into the probe of a Nicolet NT-360 NMR spectrometer where it was heated at 55° C.±1° C. NMR spectra (^1 H) were obtained every 864 seconds until isomerization to the equatorial isomer was complete as evidenced by the disappearance of the singlet corresponding to the 5H-axial proton and appearance of the 5H-equatorial proton (about 48,727 seconds).

Row | time until isomerization to the equatorial isomer was complete | SMILES
1 | about 48,727 seconds | CN1CCC(C2c3ccccc3C=Cc3ccccc32)CC1 [4-(5H-Dibenzo[a,d]cyclohepten-5-yl)-1-methylpiperidine, axial isomer]

system: Rat Aorta; experiment: Inhibition of calcium chloride-induced contraction of depolarized vascular smooth muscle segments (rat aorta); assay type: cell-based, rat (male Sprague-Dawley); conditions: Rattus norvegicus, at 10^-7 M; 1.0 mM calcium chloride-induced contraction; read-out: Percent Inhibition of Rat Aorta
Method: The property may be observed in a test in which segments of vascular smooth muscle obtained from male Sprague-Dawley rats are suspended in physiological salt solution in a tissue bath instrumented for recording contractions. After the tissue has been equilibrated, washed in calcium-free physiological salt solution and then depolarized, 1.0 mM calcium chloride is re-added to induce contraction. After the contraction has reached a plateau, tissues are washed and a test compound or vehicle is added to determine the effect on a second contraction achieved by the above cyclic protocol. From measuring the initial contraction as well as the second contraction in the presence of the test compound, the extent of inhibition may be calculated. The results of these tests for representative compounds in the compositions of the present invention are seen in the following table. The results are with tests conducted at very low concentrations of 10^-7 M or less.

Row | SMILES | inhibition at 0.1 µM
2 | CN1CCC(C2c3ccccc3C=Cc3ccc(Br)cc32)CC1 (racemic) [4-(3-Bromo-5H-dibenzo[a,d]cyclohepten-5-yl)-1-methylpiperidine, equatorial isomer] | 80%
3 | C1=Cc2ccccc2C(C2CCN(C3CCCCC3)CC2)c2ccccc21 [4-(5H-Dibenzo[a,d]cyclohepten-5-yl)-1-cyclohexylpiperidine] | 48%
4 | CC(C)N1CCC(C2c3ccccc3C=Cc3ccccc32)CC1 [4-(5H-Dibenzo[a,d]cyclohepten-5-yl)-1-isopropylpiperidine] | 44%
5 | CN1CCC(C2c3ccccc3C=Cc3ccccc32)CC1 [4-(5H-Dibenzo[a,d]cyclohepten-5-yl)-1-methylpiperidine, axial isomer] | 30%
6 | C[N+]1([O-])CCC(C2c3ccccc3C=Cc3ccccc32)CC1 (stereo not drawn) [4-(5H-Dibenzo[a,d]cyclohepten-5-yl)-1-methylpiperidine-1-oxide monohydrate] | 17%
7 | C1=Cc2ccccc2C(C2CCNCC2)c2ccccc21 [4-(5H-Dibenzo[a,d]cyclohepten-5-yl)piperidine] | 39%

same assay, conditions: Rattus norvegicus, at 10^-8 M; 1.0 mM calcium chloride-induced contraction; read-out: Percent Inhibition of Rat Aorta

Row | SMILES | inhibition at 0.01 µM
8 | COc1ccc2c(c1)C(C1CCN(C)CC1)c1ccccc1C=C2 (racemic) [4-(3-Methoxy-5H-dibenzo[a,d]cyclohepten-5-yl)-1-methylpiperidine] | 37%
9 | CN1CCC(C2c3ccccc3C=Cc3ccccc32)CC1 [4-(5H-Dibenzo[a,d]cyclohepten-5-yl)-1-methylpiperidine, equatorial isomer] | 11%

same assay, conditions: at 10^-7 M; 1.0 mM calcium chloride-induced contraction

Row | SMILES | Percent Inhibition of Rat Aorta
10 | CN1CCC(C2c3ccccc3C=Cc3ccc(Br)cc32)CC1 (racemic) [5H--ax (±)4-(3-Bromo-5H--dibenzo[a,d]cyclohepten-5-yl)-1-met] [4-(3-Bromo-5H-dibenzo[a,d]cyclohepten-5-yl)-1-methylpiperidine, axial isomer] | 79%
11 | CN1CCC(C2c3ccccc3C=Cc3ccc(Br)cc32)CC1 (single isomer, unassigned; (+)) [5H--eq (+)4-(3-Bromo-5H--dibenzo[a,d]cyclohepten-5-yl)-1-met] [(+)-4-(3-bromo-5H-dibenzo[a,d]cyclohepten-5-yl)-1-methylpiperidine] | 22%
12 | CN1CCC(C2c3ccccc3C=Cc3ccc(Br)cc32)CC1 (single isomer, unassigned; (-)) [5H--eq (-)4-(3-Bromo-5H--dibenzo[a,d]cyclohepten-5-yl)-1-met] [(-)-4-(3-bromo-5H-dibenzo[a,d]cyclohepten-5-yl)-1-methylpiperidine] | 92%
